The values below are quoted from earlier work in patent US9393439B2, “Radiotherapy combined with hypoxic cell sensitizers” (IntraOp Medical Corporation, priority 2010, dated 2016).

For the series the following is noted: patients, single dose administration; above this level the incidence of side effects increases.

Consider `O=C(Cn1ccnc1[N+](=O)[O-])NCCO` [Etanidazole, etanidazole], for which the “maximum tolerated dose (dose that may safely be given)” value is 12 gm/m^2.
